In general, Ki refers to the dissociation constant of the complex between target and ligand, obtained from inhibition or displacement. The IC50 is the concentration that gives 50% inhibition.

The structures appear in SMILES notation.

The source of these data is PMC11898488, “A2A Adenosine Receptor Antagonists and Their Efficacy in Rat Models of Parkinson’s Disease” (Cells, 2025).

In one assay the target is T1, human A1AR (Homo sapiens, UniProt P30542).
T1 construct: expressed in transfected cells; host or cells: CHO cells, crude membrane fractions
T1 sequence (P30542 1-326): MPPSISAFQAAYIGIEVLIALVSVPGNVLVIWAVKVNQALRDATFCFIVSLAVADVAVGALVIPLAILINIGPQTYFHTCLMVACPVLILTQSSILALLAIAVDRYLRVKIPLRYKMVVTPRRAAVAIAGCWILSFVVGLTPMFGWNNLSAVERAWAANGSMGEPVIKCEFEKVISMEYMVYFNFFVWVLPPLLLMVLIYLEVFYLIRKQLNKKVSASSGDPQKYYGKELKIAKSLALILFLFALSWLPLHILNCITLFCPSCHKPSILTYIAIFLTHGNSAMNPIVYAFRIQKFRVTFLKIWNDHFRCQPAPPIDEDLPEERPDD
To be noted: [3H]-CCPA displacement, human A1AR in CHO cells; geometric mean with 95% confidence limits; read-out: Ki A1; cited from earlier work.

The next assay deals with T2, human A2AAR (Homo sapiens, UniProt P29274).
T2 construct: expressed in transfected cells; host or cells: CHO cells, crude membrane fractions
The note with it: [3H]-NECA displacement, human A2AAR in CHO cells; geometric mean with 95% confidence limits; read-out: Ki A2A; cited from earlier work.

The target in another assay is T3, human A3AR (Homo sapiens, UniProt P0DMS8).
T3 construct: expressed in transfected cells; host or cells: CHO cells, crude membrane fractions
T3 sequence (P0DMS8 1-318): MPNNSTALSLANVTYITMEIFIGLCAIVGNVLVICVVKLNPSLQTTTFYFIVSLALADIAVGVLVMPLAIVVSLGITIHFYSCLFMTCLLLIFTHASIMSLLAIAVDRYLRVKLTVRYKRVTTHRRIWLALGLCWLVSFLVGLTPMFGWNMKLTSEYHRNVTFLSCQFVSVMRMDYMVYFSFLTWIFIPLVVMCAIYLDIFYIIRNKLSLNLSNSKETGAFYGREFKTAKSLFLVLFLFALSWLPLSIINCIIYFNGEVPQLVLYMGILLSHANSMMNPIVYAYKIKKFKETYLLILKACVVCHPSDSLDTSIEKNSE
To be noted: [3H]-NECA displacement, human A3AR in CHO cells; geometric mean with 95% confidence limits; read-out: Ki A3; cited from earlier work.

A further assay deals with T4, human A2BAR (Homo sapiens, UniProt P29275).
T4 construct: expressed in transfected cells; host or cells: CHO cells, crude membrane fractions
T4 sequence (P29275 1-332): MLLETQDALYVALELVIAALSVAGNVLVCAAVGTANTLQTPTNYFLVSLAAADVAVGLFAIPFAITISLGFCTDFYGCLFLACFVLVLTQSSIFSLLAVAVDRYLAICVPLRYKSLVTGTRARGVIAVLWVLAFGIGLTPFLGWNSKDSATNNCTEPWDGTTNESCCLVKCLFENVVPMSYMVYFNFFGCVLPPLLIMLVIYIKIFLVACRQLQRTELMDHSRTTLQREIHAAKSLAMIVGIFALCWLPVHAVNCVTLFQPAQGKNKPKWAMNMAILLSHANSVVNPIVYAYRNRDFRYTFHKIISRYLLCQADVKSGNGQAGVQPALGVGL
The note with it: inhibition of NECA-stimulated AC activity, CHO cells expressing human A2BAR; geometric mean with 95% confidence limits; read-out: IC50 A2B; cited from earlier work.

In assay [1] the test system is tacrine-induced tremulous jaw movements. Nature of the assay: Tacrine-induced tremulous jaw movements. Format: in vivo, rat. The note with it: rats, 5 mg/kg i.p. pretreatment, tacrine 2.5 mg/kg i.p.; 60 min, versus vehicle. As for the experimental part:
Rats were divided into two groups and treated with vehicle or 4 (5 mg/kg. i.p.). Tacrine (2.5 mg/kg i.p.) was administered 20 min after vehicle or 4, and the number of TJMs and bursts of TJMs (i.e., episodes of consecutive TJMs) were measured for 60 min. TJMs were defined as vertical deflections of the lower jaw not directed at a particular stimulus. Yawns, tongue protrusions, and stereotypies, such as grooming, were not scored. In the tacrine-induced TJM tests, the mean and S.E.M of the number of TJMs and bursts were calculated. Significant differences between groups were evaluated by Student’s t-test.

T2 sequence (P29274 whole entry): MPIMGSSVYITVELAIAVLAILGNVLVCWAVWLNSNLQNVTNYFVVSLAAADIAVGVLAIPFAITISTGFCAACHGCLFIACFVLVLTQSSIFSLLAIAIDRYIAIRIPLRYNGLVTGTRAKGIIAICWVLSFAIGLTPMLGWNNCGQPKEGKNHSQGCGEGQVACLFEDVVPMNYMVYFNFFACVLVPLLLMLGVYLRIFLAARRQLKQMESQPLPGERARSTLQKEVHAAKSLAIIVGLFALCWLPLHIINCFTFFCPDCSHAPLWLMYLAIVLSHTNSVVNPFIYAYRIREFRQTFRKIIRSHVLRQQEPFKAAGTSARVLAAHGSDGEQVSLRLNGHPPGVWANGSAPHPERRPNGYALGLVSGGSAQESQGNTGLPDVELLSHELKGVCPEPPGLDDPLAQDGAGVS

As for `CCn1c(Br)nc2c(N)nc(OCCc3ccccc3)nc21` [Compound 1, 8-bromo-9-ethyl-2-phenetoxyadenine], the inhibitory constant (Ki) on human A1AR was 23 nM; at human A2AAR, 1.7 nM; at human A3AR, 1090 nM. Further, the IC50 at human A2BAR is 569 nM.

`CCOc1nc2c(N)nc(OCCc3ccccc3)nc2n1CC` [Compound 4, 8-ethoxy-9-ethyl-2-phenethoxyadenine]: in assay [1], the “Number of tremor bursts induced by tacrine” value is “but not tremor bursts” and the “Number of tremulous jaw movements induced by tacrine” value was “significantly reduced”.
